Data published in patent publication US20110008465A1, “SESQUITERPENE FORMULATIONS, KITS AND METHODS OF USE THEREOF” (priority 2007, published 2011).
Counter-ions that a name gives are not always drawn.

Tests used:
Assay in all cases: Chou and Talalay combination assay with beta-caryophyllene
Details in all cases: anticancer drug in combination with beta-caryophyllene; Chou and Talalay CI; 48 h
A-549 (lung cancer) = type: cell-based, human
Procedure: (§1) Each solution was prepared fresh and use within 1 hour after preparation.
(§2) Cells were then harvested using trypsine-EDTA. Cells were counted using a hemocytometer and resuspended in DMEM+10% FBS medium.
(§3) Proliferation assay: Increasing concentrations of the anticancer agents and/or beta-caryophyllene were added to 96-well plate (100 μL per well). The final concentration of solvent in the culture medium was maintained below 0.5% (volume/volume) to avoid solvent toxicity.
(§4) The cells were incubated for 48 h at 37° C. and 5% CO2. Cytotoxicity was assessed using the resazurin reduction test (O'Brien et al., 2000). Fluorescence was measured on an automated 96-well Fluoroskan Ascent FI™ plate reader (Labsystems) using excitation and emission wavelengths of 530 nm and 590 nm, respectively. Resazurin was then removed.
(§5) Microplates were frozen at −20° C. overnight. Plates were thawed, a volume of 100 μl of 0.01% SDS in water was added to the wells, the plates were shaken at room temperature for 3 hours and then frozen once more at −20° C. overnight. […] Plates were shaken in the dark (at room temperature) for at least 2 hours, and fluorescence was measured on an automated 96-well Fluoroskan Ascent FI™ plate reader (Labsystems) using excitation and emission wavelengths of 360 nm and 460 nm, respectively.
(§6) Results were analyzed using the Chou and Talalay method (9) and may be interpreted as follow: Cl>1 represents an antagonist effect of beta-caryophyllene with the corresponding anticancer agent; Cl=1 represents an additive effect of beta-caryophyllene with the corresponding anticancer agent; Cl<1 represents a potentiating effect of beta-caryophyllene with the corresponding anticancer agent.

PA-1 (ovary cancer) = type: cell-based, human
Procedure: as §1, §2, §3, §4, §5, §6

MCF-7 (breast cancer) = type: cell-based, human
Procedure: as §1, §2, §3, §4, §5, §6

[1] = system: MDA-MB-231 (breast cancer); type: cell-based, human
Procedure: as §1, §2, §3, §4, §5, §6

DLD-1 (colon cancer) = type: cell-based, human
Procedure: as §1, §2, §3, §4, §5, §6

PC-3 (prostate cancer) = type: cell-based, human
Procedure: as §1, §2, §3, §4, §5

[2] = system: GL-261 (murine glioblastoma); type: cell-based
Procedure: as §1, §2, §3, §4, §5, §6

[3] = system: U-251 (human glioblastoma); type: cell-based
Procedure: as §1, §2, §3, §4, §5, §6

MEL-2 (human melanoma) = type: cell-based
Procedure: as §1, §2, §3, §4, §5, §6

B16 (murine melanoma) = type: cell-based
Procedure: as §1, §2, §3, §4, §5, §6

| SMILES | Potentiating activity A-549 (A-549 (lung cancer)) | Potentiating activity PA-1 (PA-1 (ovary cancer)) | Potentiating activity MCF-7 (MCF-7 (breast cancer)) | Potentiating activity MDA [1] | Potentiating activity DLD-1 (DLD-1 (colon cancer)) | Potentiating activity PC-3 (PC-3 (prostate cancer)) | Potentiating activity GL-261 [2] | Potentiating activity U-251 [3] | Potentiating activity MEL-2 (MEL-2 (human melanoma)) | Potentiating activity B16 (B16 (murine melanoma)) |
| --- | --- | --- | --- | --- | --- | --- | --- | --- | --- | --- |
| COc1cccc2c1C(=O)c1c(O)c3c(c(O)c1C2=O)C[C@@](O)(C(=O)CO)C[C@@H]3O[C@H]1C[C@H](N)[C@H](O)[C@H](C)O1 [Doxorubicin, doxorubicin hydrochloride] | (2) (High: CI below 0.5 at IC50) | (1) (Very High: potentiating or additive activity to IC20 and CI < 0.6 to IC50) | (1) (Very High: CI equal or below 1 at IC20 and Cl below 0.6 to IC50) | (3) (Moderate: 0.5 < CI < 0.8 at IC50) | (4) (Weak: 0.8 < CI < 1 at IC50) | (4) (Weak: 0.8 < CI < 1 to IC50) | (3) (Moderate: 0.5 < CI < 0.8 to IC50) | (1) (Very High: potentiating or additive activity to IC20 and CI < 0.6 to IC50) | (1) (Very High: potentiating or additive activity to IC20 and CI < 0.6 to IC50) | (1) (Very High: potentiating or additive activity to IC20 and CI < 0.6 to IC50) |
| COc1cc2ncnc(Nc3cccc(Cl)c3)c2cc1OC [Tyrphostin, Tyrphostin AG 1478] | (3) (Moderate: 0.5 < CI < 0.8 at IC50) | (2) (High: CI < 0.5 to IC50) | (1) (Very High: CI equal or below 1 at IC20 and Cl below 0.6 to IC50) | (4) (Weak: 0.8 < CI < 1 at IC50) | (1) (Very High: CI equal or below 1 at IC20 and Cl below 0.6 to IC50) | (2) (High: CI < 0.5 to IC50) | (3) (Moderate: 0.5 < CI < 0.8 to IC50) | (1) (Very High: potentiating or additive activity to IC20 and CI < 0.6 to IC50) | (1) (Very High: potentiating or additive activity to IC20 and CI < 0.6 to IC50) | (1) (Very High: potentiating or additive activity to IC20 and CI < 0.6 to IC50) |
| N.N.O=C([O-])C1(C(=O)[O-])CCC1.[Pt+2] [Carboplatin, carboplatin] | (1) (Very High: CI equal or below 1 at IC20 and Cl below 0.6 to IC50) | (3) (Moderate: 0.5 < CI < 0.8 to IC50) | (1) (Very High: CI equal or below 1 at IC20 and Cl below 0.6 to IC50) | (3) (Moderate: 0.5 < CI < 0.8 at IC50) | (3) (Moderate: 0.5 < CI < 0.8 at IC50) | (6) (Antagonist effect: CI > 1) | (2) (High: CI < 0.5 to IC50) | (3) (Moderate: 0.5 < CI < 0.8 to IC50) | (3) (Moderate: 0.5 < CI < 0.8 to IC50) | (1) (Very High: potentiating or additive activity to IC20 and CI < 0.6 to IC50) |
